Earlier results on one molecule are cited in patent US20230405025A1, “CANNABINOID-CONTAINING COMPOSITIONS AND USE FOR TREATING AND PREVENTING DISEASES” (priority 2020, published 2023).

For the data set, the system named is presbyopic patient.

As to `CC[C@@H]1C(=O)OC[C@@H]1Cc1cncn1C` [Pilocarpine, pilocarpine], the Tolerability result (concentrations above 0.5%, side effects red eyes, ocular pain, brow ache, headache) is “not tolerated”. For the same molecule, where the note is “concentrations effective enough to improve reading ability, eye rendered myopic (Gilmartin et al., 1995)”, the Distance vision result was “significant decrease in the eye's distance vision”. Also, where the note is “topical concentrations below 0.5%”, the “Effect on accommodation of the eye” value was “minimal effect in the accommodation of the eye”.
